The test system of assay [1] is HCT116 MTAP null cells. Nature of the assay: HCT116 MTAP null cell proliferation / viability (CellTiter-Glo, 6 days). In kind it is cell-based. The conditions noted are these: HCT116-MTAP null, 144 h, HCT116 MTAP null cells, 6 days, CellTiter-Glo; read-out: HCT-116 MTAP null IC50. A digest of the protocol:
(§1)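 IC50 values derive from sigmoidal dose-response fits, some with Hill slope fixed at −1 and top constrained to 100%, others from 4-parameter logistic models. They reflect CellTiter-Glo viability after 6 days of compound exposure at up to 10 or 50 μM.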
A general note: ATP-based viability assays read luminescence as a measure of living cells.

Assay [2] concerns HCT116 WT cells. Put plainly: HCT116 WT cell proliferation / viability (CellTiter-Glo, 6 days). The conditions noted are these: Homo sapiens, HCT-116, 144 h, HCT116 WT cells, 6 days, CellTiter-Glo; read-out: HCT-116 WT IC50. The format is cell-based. A digest of the protocol: as §1

For orientation: IC50 means the concentration needed to halve the response being measured.

On to `CN(Cc1ccc(C(F)(F)F)cc1)C(=O)c1ccc2nc(N)c3cnn(C)c3c2c1` [Example 543, 4-amino-N,1-dimethyl-N-(4-(trifluoromethyl)benzyl)-1H-pyrazolo[4,3-c]quinoline-8-carboxamide], for which the IC50 in assay [1] was 57 nM; in assay [2], 2010 nM.
Consider `CC1OCc2c1c(N)nc1ccc(C(=O)N(CC3=CCCOC3)Cc3ccc(C(F)(F)F)cn3)cc21` (stereo not drawn) [Example 915, 4-amino-N-((5,6-dihydro-2H-pyran-3-yl)methyl)-3-methyl-N-((5-(trifluoromethyl)pyridin-2-yl)methyl)-1,3-dihydrofuro[3,4-c]quinoline-8-carboxamide], for which the IC50 came to 29 nM in assay [1] and 4200 nM in assay [2].
As for `Cn1ncc2c(N)nc3cc(F)c(C(=O)N(Cc4ncc(C(F)(F)F)cc4F)C4CC4)cc3c21` [Example 809, 4-amino-N-cyclopropyl-7-fluoro-N-((3-fluoro-5-(trifluoromethyl)-2-pyridinyl)methyl)-1-methyl-1H-pyrazolo[4,3-c]quinoline-8-carboxamide], the IC50 in assay [1] was found to be 31 nM; in assay [2], 1790 nM.
On the same counts, the results for `CCN(Cc1ccc(C(F)(F)F)nc1)C(=O)c1cc2c3c(c(N)nc2cn1)COC3` [Example 704, 4-amino-N-ethyl-N-((6-(trifluoromethyl)-3-pyridinyl)methyl)-1,3-dihydrofuro[3,4-c][1,7]naphthyridine-8-carboxamide] are 549 nM and above 10000 nM.
For the compound `Cc1cc2nc(N)c3cnn(C)c3c2cc1C(=O)N(C)[C@H](C)c1ccc(F)cn1` (single isomer, unassigned) [Example 592], the results for the IC50 in assay [1] and in assay [2] were 25 nM and 2410 nM, respectively.
The corresponding values for `COCC(C1CC1)N(Cc1ccc(Br)nn1)C(=O)c1ccc2nc(N)c3sccc3c2c1` (racemic) [Example 639, 4-amino-N-((6-bromo-3-pyridazinyl)methyl)-N-((1R)-1-cyclopropyl-2-methoxyethyl)thieno[2,3-c]quinoline-8-carboxamide and 4-amino-N-((6-bromo-3-pyridazinyl)methyl)-N-((1S)-1-cyclopropyl-2-methoxyethyl)thieno[2,3-c]quinoline-8-carboxamide] are 238 nM and 3150 nM.
Take `C[C@H]1OCc2c1c(N)nc1cc(F)c(C(=O)N(C)[C@@H](C)c3ccc(C(F)(F)F)cc3)cc21` (single isomer, unassigned) [Example 859]: the IC50 worked out at 583 nM in assay [1] and 17500 nM in assay [2].
On the same counts, the results for `CC(c1ccc(F)cn1)N(C)C(=O)c1cc2c3c(c(N)nc2cc1Cl)COC3` (racemic) [Example 772, 4-amino-7-chloro-N-((1R)-1-(5-fluoro-2-pyridinyl)ethyl)-N-methyl-1,3-dihydrofuro[3,4-c]quinoline-8-carboxamide and 4-amino-7-chloro-N-((1S)-1-(5-fluoro-2-pyridinyl)ethyl)-N-methyl-1,3-dihydrofuro[3,4-c]quinoline-8-carboxamide] are 374 nM and 18200 nM.
Regarding `CCN(C(=O)c1ccc2nc(N)c3c(c2c1)COC3)[C@@H](C)c1ccc(C#N)cn1` (single isomer, unassigned) [Example 837], the values for the IC50 in assay [1] and in assay [2] were 7080 nM and above 50000 nM, respectively.
The corresponding values for `CC(C)N(Cc1ccc(C2CC2)nc1)C(=O)c1ccc2nc(N)c3c(c2c1)CO[C@@H]3C` [Example 350, (3R)-4-amino-N-((6-cyclopropyl-3-pyridinyl)methyl)-3-methyl-N-(2-propanyl)-1,3-dihydrofuro[3,4-c]quinoline-8-carboxamide] are 332 nM and 22100 nM.
On the same counts, the results for `C[C@H](c1ccc(C(F)(F)F)nn1)N(C)C(=O)c1cc2c(cc1F)nc(N)c1c2cnn1C` [Example 779, 4-amino-7-fluoro-N,3-dimethyl-N-((1R)-1-(6-(trifluoromethyl)-3-pyridazinyl)ethyl)-3H-pyrazolo[3,4-c]quinoline-8-carboxamide] are 364 nM and 28900 nM.
The corresponding values for `Cn1ncc2c(N)nc3cc(F)c(C(=O)N(Cc4ccc(C(F)(F)F)cn4)CC(F)(F)F)cc3c21` [Example 800, 4-amino-7-fluoro-1-methyl-N-(2,2,2-trifluoroethyl)-N-((5-(trifluoromethyl)-2-pyridinyl)methyl)-1H-pyrazolo[4,3-c]quinoline-8-carboxamide] are 7 nM and 245 nM.
With `Nc1nc2ccc(C(=O)N(Cc3ccc(C(F)(F)F)cn3)CC(F)(F)F)cc2c2c1COC2` [Example 483, 4-amino-N-(2,2,2-trifluoroethyl)-N-((5-(trifluoromethyl)-2-pyridinyl)methyl)-1,3-dihydrofuro[3,4-c]quinoline-8-carboxamide], the figures for the IC50 in assay [1] and in assay [2] were 458 nM and 7290 nM, respectively.
On the same counts, the results for `CC(C)N(Cc1ccc(C#N)cn1)C(=O)c1cc2c3c(c(N)nc2cn1)[C@@H](C)OC3` [Example 404, (3R)-4-amino-N-((5-cyano-2-pyridinyl)methyl)-3-methyl-N-(2-propanyl)-1,3-dihydrofuro[3,4-c][1,7]naphthyridine-8-carboxamide] are 180 nM and 11400 nM.
On to `C[C@H](c1ccc(S(F)(F)(F)(F)F)cc1)N(C)C(=O)c1cc2c(cn1)nc(N)c1c2cnn1C` (single isomer, unassigned) [Example 868], for which the figures for the IC50 in assay [1] and in assay [2] were 59 nM and 3840 nM, respectively.
With `CCN(Cc1ccc(C(F)(F)F)cn1)C(=O)c1cc2c(cc1F)nc(N)c1c2cnn1C` [Example 427, 4-amino-N-ethyl-7-fluoro-3-methyl-N-((5-(trifluoromethyl)-2-pyridinyl)methyl)-3H-pyrazolo[3,4-c]quinoline-8-carboxamide], the IC50 amounted to 44 nM in assay [1] and 1680 nM in assay [2].
On the same counts, the results for `Nc1nc2ccc(C(=O)N(Cc3ccc(C(F)(F)F)cn3)CC3CC3)cc2c2c1COC2` [Example 300, 4-amino-N-(cyclopropylmethyl)-N-[[5-(trifluoromethyl)-2-pyridyl]methyl]-1,3-dihydrofuro[3,4-c]quinoline-8-carboxamide] are 41 nM and 1340 nM.
On to `Nc1nc2ccc(C(=O)N(Cc3ccc(C(F)(F)F)cn3)C3CC3)cc2c2c1COC2` [Example 443, 4-amino-N-cyclopropyl-N-((5-(trifluoromethyl)-2-pyridinyl)methyl)-1,3-dihydrofuro[3,4-c]quinoline-8-carboxamide], for which the IC50 in assay [1] is 127 nM; in assay [2] it was 7210 nM.
As to `C[C@H](c1ccc(C(F)(F)C(F)(F)F)cc1)N(C)C(=O)c1cc2c(cc1F)nc(N)c1cnn(C)c12` [Example 788, 4-amino-7-fluoro-N,1-dimethyl-N-((1R)-1-(4-(pentafluoroethyl)phenyl)ethyl)-1H-pyrazolo[4,3-c]quinoline-8-carboxamide], the IC50 amounted to 8 nM in assay [1] and 134 nM in assay [2].
On the same counts, the results for `CN(Cc1ccc(C#N)cn1)C(=O)c1ccc2nc(N)c3c(c2c1)COC3` [Example 324, 4-amino-N-((5-cyano-2-pyridinyl)methyl)-N-methyl-1,3-dihydrofuro[3,4-c]quinoline-8-carboxamide] are 908 nM and 51600 nM.
The corresponding values for `CCN(Cc1ccc(C(F)(F)F)cn1)C(=O)c1cc2c3c(c(N)nc2cc1F)[C@@H](C)OC3` [Example 556, (3R)-4-amino-N-ethyl-7-fluoro-3-methyl-N-((5-(trifluoromethyl)-2-pyridinyl)methyl)-1,3-dihydrofuro[3,4-c]quinoline-8-carboxamide] are 14 nM and 458 nM.
On the same counts, the results for `CCN(Cc1ccc(C(F)(F)F)cc1)C(=O)c1cc2c3c(c(N)nc2cn1)COC3` [Example 707, 4-amino-N-ethyl-N-(4-(trifluoromethyl)benzyl)-1,3-dihydrofuro[3,4-c][1,7]naphthyridine-8-carboxamide] are 106 nM and 2870 nM.
Turning to `C[C@H](c1ccc(F)cn1)N(C)C(=O)c1cc2c(cc1F)nc(N)c1cnn(C)c12` (single isomer, unassigned) [Example 873], the values for the IC50 in assay [1] and in assay [2] were 66 nM and 7320 nM, respectively.
On the same counts, the results for `CCN(Cc1ccc(C(F)(F)F)cn1)C(=O)c1cc2c3c(c(N)nc2cc1F)COC3` [Example 419, 4-amino-N-ethyl-7-fluoro-N-((5-(trifluoromethyl)-2-pyridinyl)methyl)-1,3-dihydrofuro[3,4-c]quinoline-8-carboxamide] are 152 nM and 3790 nM.
The corresponding values for `CCN(Cc1cnc(C(F)(F)F)cn1)C(=O)c1cc2c3c(c(N)nc2cc1F)COC3` [Example 497, 4-amino-N-ethyl-7-fluoro-N-((5-(trifluoromethyl)-2-pyrazinyl)methyl)-1,3-dihydrofuro[3,4-c]quinoline-8-carboxamide] are 250 nM and 3520 nM.
On the same counts, the results for `C[C@H](c1ncccn1)N(Cc1ccc(Cl)cn1)C(=O)c1ccc2nc(N)c3c(c2c1)COC3` [Example 439, 4-amino-N-((5-chloro-2-pyridinyl)methyl)-N-((1R)-1-(2-pyrimidinyl)ethyl)-1,3-dihydrofuro[3,4-c]quinoline-8-carboxamide] are 7 nM and 138 nM.
`CC(c1ccc(C(F)(F)F)cn1)N(C)C(=O)c1cc2c3c(c(N)nc2cn1)COC3` (racemic) [Example 709, 4-amino-N-methyl-N-((1R)-1-(5-(trifluoromethyl)-2-pyridinyl)ethyl)-1,3-dihydrofuro[3,4-c][1,7]naphthyridine-8-carboxamide and 4-amino-N-methyl-N-((1S)-1-(5-(trifluoromethyl)-2-pyridinyl)ethyl)-1,3-dihydrofuro[3,4-c][1,7]naphthyridine-8-carboxamide]: the IC50 in assay [1] amounted to 76 nM; in assay [2], 4250 nM.

These data come from patent US20240101570A1 (AMGEN INC., priority 2020, published 2024).
